Laboratory results from article PMC6748449, “HupA, the main undecaprenyl pyrophosphate and phosphatidylglycerol phosphate phosphatase in Helicobacter pylori is essential for colonization of the stomach” (PLoS Pathogens, 2019).

Assays:
LpxF (HP1580) = molecular target: T1, LpxF (HP1580) (Helicobacter pylori, UniProt O26100); experiment: phosphate release, malachite green; assay type: biochemical; settings: 50 uM substrate, 0.2% DDM, pH 7.4, 37 °C; very low activity
T1 construct: gene HP_1580

LpxE (HP0021) = LpxE (HP0021) (Helicobacter pylori, UniProt O24866); experiment: phosphate release, malachite green; assay type: biochemical; settings: 50 uM substrate, 0.2% DDM, pH 7.4, 37 °C
Chain of LpxE (HP0021) (O24866 whole entry): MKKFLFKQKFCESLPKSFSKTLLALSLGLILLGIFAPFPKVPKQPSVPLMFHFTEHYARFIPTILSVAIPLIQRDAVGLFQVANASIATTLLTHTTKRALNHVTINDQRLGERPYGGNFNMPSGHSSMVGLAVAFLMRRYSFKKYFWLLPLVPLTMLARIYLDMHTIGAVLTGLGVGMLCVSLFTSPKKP

T1 sequence (O26100 entry or part of it): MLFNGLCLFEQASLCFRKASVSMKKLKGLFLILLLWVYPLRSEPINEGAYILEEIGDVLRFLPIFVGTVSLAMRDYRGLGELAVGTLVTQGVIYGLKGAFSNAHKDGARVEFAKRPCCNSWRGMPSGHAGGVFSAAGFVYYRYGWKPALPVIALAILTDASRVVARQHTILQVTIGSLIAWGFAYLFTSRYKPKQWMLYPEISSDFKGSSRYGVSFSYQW

CC(C)=CCC/C(C)=C/CC/C(C)=C/COP(=O)(O)OP(=O)(O)O [C15-PP]
phosphate release, malachite green (LpxF (HP1580)): LpxF only showed very low activity towards C15-PP and PGP | phosphate release, malachite green (LpxE (HP0021)): LpxE had similar substrate specificity as HupA, except for C5-PP
